# pIC50: −log10 of the molar value.
# Experiments:
# [1] = molecular target: T1, Xanthine dehydrogenase/oxidase (Bos taurus, UniProt P80457); experiment: Inhibition of cow milk xanthine oxidase
# [2] = molecular target: T1, Xanthine dehydrogenase/oxidase; experiment: Inhibition of cow milk xanthine oxidase at 50 ug/mL; conditions: cattle
# T1 sequence (P80457 whole entry): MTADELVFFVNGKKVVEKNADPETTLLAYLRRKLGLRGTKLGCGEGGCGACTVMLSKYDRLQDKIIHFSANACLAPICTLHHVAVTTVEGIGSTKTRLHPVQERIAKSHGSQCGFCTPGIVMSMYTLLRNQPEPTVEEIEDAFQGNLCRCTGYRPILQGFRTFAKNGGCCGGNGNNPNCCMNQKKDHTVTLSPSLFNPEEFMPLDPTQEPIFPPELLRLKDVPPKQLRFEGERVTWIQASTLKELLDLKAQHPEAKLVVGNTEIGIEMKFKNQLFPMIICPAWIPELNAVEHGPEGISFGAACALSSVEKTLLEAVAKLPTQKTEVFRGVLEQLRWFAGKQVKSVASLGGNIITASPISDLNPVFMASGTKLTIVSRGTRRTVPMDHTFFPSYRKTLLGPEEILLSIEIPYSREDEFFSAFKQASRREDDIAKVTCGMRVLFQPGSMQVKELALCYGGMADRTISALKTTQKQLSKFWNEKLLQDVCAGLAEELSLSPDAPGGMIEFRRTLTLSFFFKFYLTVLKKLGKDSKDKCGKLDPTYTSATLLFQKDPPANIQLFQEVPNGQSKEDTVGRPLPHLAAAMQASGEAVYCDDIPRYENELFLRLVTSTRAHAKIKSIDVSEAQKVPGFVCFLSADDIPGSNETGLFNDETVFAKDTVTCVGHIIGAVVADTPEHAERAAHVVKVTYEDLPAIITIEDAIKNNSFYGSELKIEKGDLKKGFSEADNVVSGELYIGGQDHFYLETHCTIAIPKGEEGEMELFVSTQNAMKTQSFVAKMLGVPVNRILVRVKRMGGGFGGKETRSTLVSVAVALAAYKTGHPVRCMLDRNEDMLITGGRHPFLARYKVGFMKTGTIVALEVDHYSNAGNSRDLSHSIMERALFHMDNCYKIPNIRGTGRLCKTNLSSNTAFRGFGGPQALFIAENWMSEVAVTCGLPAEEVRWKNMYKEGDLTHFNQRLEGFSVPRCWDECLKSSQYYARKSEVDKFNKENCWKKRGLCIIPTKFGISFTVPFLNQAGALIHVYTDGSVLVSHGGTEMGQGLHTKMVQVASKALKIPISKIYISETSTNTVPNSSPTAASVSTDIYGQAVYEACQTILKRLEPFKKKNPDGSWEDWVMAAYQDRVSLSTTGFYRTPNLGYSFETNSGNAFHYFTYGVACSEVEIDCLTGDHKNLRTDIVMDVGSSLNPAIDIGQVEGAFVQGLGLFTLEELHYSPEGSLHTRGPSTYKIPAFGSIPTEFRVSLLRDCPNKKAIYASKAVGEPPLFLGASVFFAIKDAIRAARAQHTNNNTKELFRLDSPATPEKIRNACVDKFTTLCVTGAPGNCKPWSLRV
pIC50 [1],inhibition at 50 µg/mL [2],Compound
4.46,90.3%,COc1cc(-c2oc3cc(O)cc(O)c3c(=O)c2OS(=O)(=O)O)ccc1O [PERSICARIN]
4.90,67.3%,O=c1cc(-c2ccc(O)cc2)oc2cc(O)c(O)c(O)c12 [SCUTELLAREIN]
–,0%,COc1c(O[C@@H]2O[C@H](CO)[C@@H](O)[C@H](O)[C@H]2O)cc2occ(-c3ccc(O)cc3)c(=O)c2c1O [TECTORIDIN]
–,0%,COc1c(O)cc2occ(-c3ccc(O)cc3)c(=O)c2c1O [TECTORIGENIN]
–,0%,COc1ccc(-c2cc(=O)c3c(O)cc(O[C@@H]4O[C@H](CO)[C@@H](O)[C@H](O)[C@H]4O)cc3o2)cc1 [TILIANINE]
–,39.5%,COc1c(-c2ccc(O)c(O)c2)oc2cc(O[C@@H]3O[C@H](CO)[C@@H](O)[C@H](O)[C@H]3O)cc(O)c2c1=O [TRANSILIN]
–,16.1%,O=c1c(O[C@@H]2O[C@H](CO)[C@H](O)[C@H](O)[C@H]2O)c(-c2ccc(O)cc2)oc2cc(O)cc(O)c12 [TRIFOLIN]
3.75,50.2%,COc1c(O)cc(O)c2c(=O)cc(-c3ccccc3)oc12 [WOGONIN]

# The next lines start with the compound.
Compound,pIC50 [1],inhibition at 50 µg/mL [2]
COc1c(-c2ccc(O[C@@H]3O[C@H](CO)[C@@H](O)[C@H](O)[C@H]3O)c(O)c2)oc2cc(O)cc(O)c2c1=O,4.45,69.1%
"O=c1cc(-c2ccc(O)c(O)c2)oc2cc(O[C@@H]3O[C@H](CO)[C@@H](O)[C@H](O)[C@H]3O)cc(O)c12 (single isomer, unassigned) [GALUTEOLIN]",4.12,67.2%
"COc1c(O)cc2oc(-c3ccc(O)cc3)c(OC)c(=O)c2c1O [3,6-DIMETHOXY KAEMPFEROL]",7.52,95%
COc1c(-c2ccc(O)c(O)c2)oc2cc(O)cc(O)c2c1=O [3-O-METHYLQUERCETIN],4.50,98.5%
COc1ccc(-c2cc(=O)c3c(O)cc(O)cc3o2)cc1 [ACACETIN],4.85,55.7%
O=c1cc(-c2ccc(O)c(-c3c(O)cc(O)c4c(=O)cc(-c5ccc(O)cc5)oc34)c2)oc2cc(O)cc(O)c12 [AMENTOFLAVONE],4.45,100%
O=c1cc(-c2ccccc2)oc2cc(O)c(O)c(O)c12 [BAICALEIN],5.48,85.5%
O=C1c2c(O)cc(O)cc2O[C@H](c2ccc(O)cc2)[C@H]1O [DIHYDROKAEMPFEROL],4.03,66.9%
O=C1CC(c2ccc(O)c(O)c2)Oc2c1c(O)cc(O)c2[C@@H]1C(=O)c2c(O)cc(O)cc2O[C@H]1c1ccc(O)cc1 (stereo not given in full) [FUKUGETIN],4.65,97.2%
O=c1cc(-c2ccc(O)cc2)oc2c([C@@H]3O[C@H](CO)[C@@H](O)[C@H](O)[C@H]3O)c(O)cc(O)c12 [VITEXIN],–,0%
